Experimental data from ChEMBL document CHEMBL3045546, “Synthesis and antimicrobial screening of 4-thiazolidinone and 2-azetidinone derivatives of piperazine” (2013).
Converted amounts (≈) assume the structure as drawn.

Experiments:
Type in all cases: functional
[1] = system: Bacillus cereus; experiment: Antimicrobial activity against Bacillus cereus ATCC 11778 assessed as growth inhibition by broth dilution method
[2] = system: Bacillus pumilus; experiment: Antimicrobial activity against Bacillus pumilus ATCC 14884 assessed as growth inhibition by broth dilution method
[3] = system: Staphylococcus hominis; experiment: Antimicrobial activity against Staphylococcus hominis ATCC 27844 assessed as growth inhibition by broth dilution method
[4] = system: Staphylococcus aureus; experiment: Antimicrobial activity against Staphylococcus aureus ATCC 25923 assessed as growth inhibition by broth dilution method
[5] = system: Staphylococcus epidermidis; experiment: Antimicrobial activity against Staphylococcus epidermidis ATCC 12228 assessed as growth inhibition by broth dilution method
[6] = system: Micrococcus luteus; experiment: Antimicrobial activity against Micrococcus luteus ATCC 4698 assessed as growth inhibition by broth dilution method
[7] = system: Bacillus subtilis; experiment: Antimicrobial activity against Bacillus subtilis ATCC 6633 assessed as growth inhibition by broth dilution method
[8] = system: Aspergillus fumigatus; experiment: Antimicrobial activity against Aspergillus fumigatus assessed as growth inhibition by broth dilution method
[9] = system: Aspergillus flavus; experiment: Antimicrobial activity against Aspergillus flavus ATCC 15517 assessed as growth inhibition by broth dilution method
[10] = system: Trichoderma viride; experiment: Antimicrobial activity against Hypocrea rufa ATCC 52440 assessed as growth inhibition by broth dilution method
[11] = system: Fusarium solani; experiment: Antimicrobial activity against Fusarium solani ATCC 38136 assessed as growth inhibition by broth dilution method
[12] = system: Trichophyton longifusum; experiment: Antimicrobial activity against Trichophyton longifusum ATCC 22397 assessed as growth inhibition by broth dilution method
[13] = system: Rhizoctonia solani; experiment: Antimicrobial activity against Rhizoctonia solani ATCC 76131 assessed as growth inhibition by broth dilution method
[14] = system: Alternaria alternata; experiment: Antimicrobial activity against Alternaria alternata ATCC 66868 assessed as growth inhibition by broth dilution method
[15] = system: Microsporum canis; experiment: Antimicrobial activity against Arthroderma otae ATCC 11622 assessed as growth inhibition by broth dilution method
[16] = system: Candida albicans; experiment: Antimicrobial activity against Candida albicans ATCC 10231 assessed as growth inhibition by broth dilution method
[17] = system: Aspergillus awamori; experiment: Antimicrobial activity against Aspergillus awamori ATCC 22342 assessed as growth inhibition by broth dilution method
[18] = system: Aspergillus niger; experiment: Antimicrobial activity against Aspergillus niger ATCC 9142 assessed as growth inhibition by broth dilution method
[19] = system: Pseudomonas aeruginosa; experiment: Antimicrobial activity against Pseudomonas aeruginosa ATCC 10145 assessed as growth inhibition by broth dilution method
[20] = system: Escherichia coli; experiment: Antimicrobial activity against Escherichia coli ATCC 25922 assessed as growth inhibition by broth dilution method
[21] = system: Salmonella typhi; experiment: Antimicrobial activity against Salmonella enterica subsp. enterica serovar Typhi ATCC 19430 assessed as growth inhibition by broth dilution method
[22] = system: Klebsiella pneumoniae; experiment: Antimicrobial activity against Klebsiella pneumoniae ATCC 13883 assessed as growth inhibition by broth dilution method
[23] = system: Proteus mirabilis; experiment: Antimicrobial activity against Proteus mirabilis ATCC 49565 assessed as growth inhibition by broth dilution method
[24] = system: Proteus vulgaris; experiment: Antimicrobial activity against Proteus vulgaris ATCC 13315 assessed as growth inhibition by broth dilution method

Compound | MIC [1] [µg/mL] | MIC [2] [µg/mL] | MIC [3] [µg/mL] | MIC [4] [µg/mL] | MIC [5] [µg/mL] | MIC [6] [µg/mL] | MIC [7] [µg/mL] | MIC [8] [µg/mL] | MIC [9] [µg/mL] | MIC [10] [µg/mL] | MIC [11] [µg/mL] | MIC [12] [µg/mL] | MIC [13] [µg/mL] | MIC [14] [µg/mL] | MIC [15] [µg/mL] | MIC [16] [µg/mL] | MIC [17] [µg/mL] | MIC [18] [µg/mL] | MIC [19] [µg/mL] | MIC [20] [µg/mL] | other results
COc1ccc(C2SCC(=O)N2CCN2CCNCC2)cc1O (stereo unspecified) | 4.68 (≈ 13.9 µM) | 9.37 (≈ 27.8 µM) | 9.37 (≈ 27.8 µM) | 9.37 (≈ 27.8 µM) | 9.37 (≈ 27.8 µM) | 9.37 (≈ 27.8 µM) | 9.37 (≈ 27.8 µM) | 9.37 (≈ 27.8 µM) | 9.37 (≈ 27.8 µM) | 18.8 (≈ 55.6 µM) | 18.8 (≈ 55.6 µM) | 18.8 (≈ 55.6 µM) | 9.37 (≈ 27.8 µM) | 18.8 (≈ 55.6 µM) | 9.37 (≈ 27.8 µM) | 9.37 (≈ 27.8 µM) | 9.37 (≈ 27.8 µM) | 18.8 (≈ 55.6 µM) | 9.37 (≈ 27.8 µM) | 9.37 (≈ 27.8 µM) | MIC [21]: 9.37 µg/mL (≈ 27.8 µM); MIC [22]: 4.68 µg/mL (≈ 13.9 µM); MIC [23]: 9.37 µg/mL (≈ 27.8 µM); MIC [24]: 9.37 µg/mL (≈ 27.8 µM)
O=C1CSC(c2ccccc2O)N1CCN1CCNCC1 (stereo unspecified) | 75 (≈ 244 µM) | 150 (≈ 488 µM) | 75 (≈ 244 µM) | 150 (≈ 488 µM) | 75 (≈ 244 µM) | 150 (≈ 488 µM) | 75 (≈ 244 µM) | 150 (≈ 488 µM) | 150 (≈ 488 µM) | 300 (≈ 976 µM) | 300 (≈ 976 µM) | 300 (≈ 976 µM) | 150 (≈ 488 µM) | 150 (≈ 488 µM) | 300 (≈ 976 µM) | 150 (≈ 488 µM) | 300 (≈ 976 µM) | 300 (≈ 976 µM) | 75 (≈ 244 µM) | 75 (≈ 244 µM) | MIC [21]: 75 µg/mL (≈ 244 µM); MIC [22]: 75 µg/mL (≈ 244 µM); MIC [23]: 150 µg/mL (≈ 488 µM); MIC [24]: 150 µg/mL (≈ 488 µM)
O=C1CSC(c2cccc(O)c2)N1CCN1CCNCC1 (stereo unspecified) | 18.8 (≈ 61 µM) | 37.5 (≈ 122 µM) | 37.5 (≈ 122 µM) | 37.5 (≈ 122 µM) | 18.8 (≈ 61 µM) | 18.8 (≈ 61 µM) | 37.5 (≈ 122 µM) | 37.5 (≈ 122 µM) | 37.5 (≈ 122 µM) | 37.5 (≈ 122 µM) | 75 (≈ 244 µM) | 37.5 (≈ 122 µM) | 37.5 (≈ 122 µM) | 75 (≈ 244 µM) | 37.5 (≈ 122 µM) | 37.5 (≈ 122 µM) | 37.5 (≈ 122 µM) | 37.5 (≈ 122 µM) | 37.5 (≈ 122 µM) | 37.5 (≈ 122 µM) | MIC [21]: 18.8 µg/mL (≈ 61 µM); MIC [22]: 37.5 µg/mL (≈ 122 µM); MIC [23]: 18.8 µg/mL (≈ 61 µM); MIC [24]: 37.5 µg/mL (≈ 122 µM)
O=C1CSC(c2ccc(O)cc2)N1CCN1CCNCC1 (stereo unspecified) | 9.37 (≈ 30.5 µM) | 9.37 (≈ 30.5 µM) | 9.37 (≈ 30.5 µM) | 9.37 (≈ 30.5 µM) | 9.37 (≈ 30.5 µM) | 9.37 (≈ 30.5 µM) | 4.68 (≈ 15.2 µM) | 9.37 (≈ 30.5 µM) | 18.8 (≈ 61 µM) | 18.8 (≈ 61 µM) | 9.73 (≈ 31.7 µM) | 9.73 (≈ 31.7 µM) | 18.8 (≈ 61 µM) | 18.8 (≈ 61 µM) | 18.8 (≈ 61 µM) | 9.73 (≈ 31.7 µM) | 18.8 (≈ 61 µM) | 18.8 (≈ 61 µM) | 9.37 (≈ 30.5 µM) | 4.68 (≈ 15.2 µM) | MIC [21]: 9.37 µg/mL (≈ 30.5 µM); MIC [22]: 9.37 µg/mL (≈ 30.5 µM); MIC [23]: 9.37 µg/mL (≈ 30.5 µM); MIC [24]: 4.68 µg/mL (≈ 15.2 µM)
